Experimental data as given in patent publication US11697833B2, “Antimicrobial susceptibility testing device and method for use with portable electronic device” (THE REGENTS OF THE UNIVERSITY OF CALIFORNIA, priority 2016, dated 2023).

Each compound was assayed on Klebsiella pneumoniae (assay: Broth microdilution antimicrobial susceptibility testing (AST) of patient isolates, 96-well plate read for turbidity). Details: clinical patient isolate plates, 24 hours at 37° C; expert diagnostician visual reading (gold standard); plate ID 1 (AM), 5 (A/S), 8 (MPM).
Format: cell-based
Excerpt: To determine whether a particular well 22 contains sufficient turbidity or not, a threshold-based approach is used to determine the cut-off transmittance value for each well 22. As the turbidity increases, the light transmittance through the well decreases. This operation is illustrated as operation 230 in FIGS. 4 and 5. In particular, thresholding is applied to average normalized well intensities of sample-containing wells to determine whether a particular well 22 is classified as “turbid” or “not turbid.” To choose an accurate threshold value for each well 22, the normalized transmittance values of wells 22 with no turbidity are extracted from a training set of blank reference plates 20 (i.e., plates with drugs but no microbes). For example, sixty (60) such plates that are blanks can be imaged to determine the mean transmittance at each well 22. […] In one embodiment, from this set of normalized transmittance values from wells 22 with no turbidity, a threshold of two times the standard deviation below the mean of that particular well 22 is used to determine whether a given test or sample-containing well 22 is statistically likely to have microbial growth represented by turbidity. Those wells 22 that have an averaged, normalized intensity level that is lower than two times the standard deviation below the mean “not turbid” value are classified as “turbid” while wells 22 that don't meet that criteria are classified as “not turbid.” Of course, other measures may be used for defining the cutoff or threshold. For example, fractional standard deviation may also be used for a cutoff or threshold. In addition, the threshold could also include a numerical cutoff of intensity or other multiple of the standard deviation.
With reference to FIG. 3, after the wells 22 are classified as “turbid” or “not turbid,” the software 112 generates MIC values and susceptibility characterizations for the drug(s) on the AST plate 20. For a given type of AST plate 20 (i.e., Gram-negative or Gram-positive), the MIC value for each drug is determined by finding the lowest concentration of drug in a drug-specific set of wells 22 that contains no turbidity. More specifically, the MIC value is based on the adjacent, well 22 that is classified as not turbid as this well represents the lowest concentration of antibiotic that prevented bacterial growth (i.e. the MIC). Depending on the selected microbe of interest, drug susceptibility interpretations are automatically made by the software 112 based on the MIC for each drug. FIG. 7 illustrates the layout of a map or table 114 for the AST plate 20 with susceptibility characterizations for each drug at different concentration levels. The map or table 114 with susceptibility characterizations for each drug at different concentration levels may be stored in a database (e.g., database 109 or other local storage device) as a look-up table or the like. In some embodiments, the map or table 114 for each different bacterium may be stored in the database 109 or local storage device. For example, in looking at FIG. 7 with the example of the drug ampicillin (AM), various concentrations (μg/ml) of this drug is present within wells B1, C1, D1, E1 along with a growth medium. If wells B1 and C1 were classified as turbid while wells D1 and E1 were classified as not turbid, the MIC reading would be 16 μg/ml (e.g., looking at concentration in well D1). Likewise, the susceptibility characterization would be classified as “indeterminate” using the map or table 114. […]

Row | Compound | Diagnostician Decision (drug susceptibility interpretation)
1 | C[C@@H](O)[C@H]1C(=O)N2C(C(=O)O)=C(S[C@@H]3CN[C@H](C(=O)N(C)C)C3)[C@H](C)[C@H]12 [MPM, Meropenem] | Susceptible
2 | CC1(C)S[C@@H]2[C@H](NC(=O)[C@H](N)c3ccccc3)C(=O)N2[C@H]1C(=O)O [AM, Ampicillin] | Indeterminate
3 | Ampicillin-Sulbactam [A/S] | Indeterminate

Same assay, conditions: clinical patient isolate plates, 24 hours at 37° C; mobile phone-based AST plate reader; plate ID 1 (AM), 5 (A/S), 8 (MPM); misdiagnosed cases

Row | Compound | Automated System Decision (drug susceptibility interpretation)
4 | C[C@@H](O)[C@H]1C(=O)N2C(C(=O)O)=C(S[C@@H]3CN[C@H](C(=O)N(C)C)C3)[C@H](C)[C@H]12 [MPM, Meropenem] | Resistant
5 | CC1(C)S[C@@H]2[C@H](NC(=O)[C@H](N)c3ccccc3)C(=O)N2[C@H]1C(=O)O [AM, Ampicillin] | Resistant
6 | Ampicillin-Sulbactam [A/S] | Resistant
